This passage reports inhibition results from PMC6934184, “Selective DNA-PKcs inhibition extends the therapeutic index of localized radiotherapy and chemotherapy” (The Journal of Clinical Investigation, 2019).

In this assay the target is T1, SRMS (Srm) (Homo sapiens, UniProt Q9H3Y6).
T1 construct: purchased Thermo Fisher Scientific (Life Technologies) SelectScreen
Put plainly: SelectScreen Z'LYTE. The format is biochemical. The procedure, abridged:
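Percent values come from Thermo SelectScreen profiling of NU5455, combining activity and binding assays. CSF1R was run in Z'LYTE format at Km app ATP, and CAMK1 in Adapta format with ATP listed at 10.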

T1 sequence (Q9H3Y6 whole entry): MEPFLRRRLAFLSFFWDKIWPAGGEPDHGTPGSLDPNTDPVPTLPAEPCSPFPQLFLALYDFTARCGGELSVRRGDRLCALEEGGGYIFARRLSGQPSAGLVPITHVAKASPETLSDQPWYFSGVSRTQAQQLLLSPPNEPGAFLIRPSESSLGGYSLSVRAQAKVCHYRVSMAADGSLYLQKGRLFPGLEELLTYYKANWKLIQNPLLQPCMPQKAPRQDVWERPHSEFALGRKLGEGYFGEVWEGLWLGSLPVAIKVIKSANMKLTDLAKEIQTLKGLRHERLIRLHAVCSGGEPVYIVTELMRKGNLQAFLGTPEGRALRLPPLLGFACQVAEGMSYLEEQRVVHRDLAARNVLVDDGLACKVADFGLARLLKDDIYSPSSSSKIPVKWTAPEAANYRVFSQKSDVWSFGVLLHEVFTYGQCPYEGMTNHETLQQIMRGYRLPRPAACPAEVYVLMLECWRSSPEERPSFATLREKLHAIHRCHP

On to `CN(C(=O)CN1CCOCC1)c1ccc2sc3c(-c4cccc5c(=O)cc(N6CC7CCC(C6)O7)oc45)cccc3c2c1` [NU5455], for which 1 µM produced 7.5% inhibition.
